# Like-named read-outs stand apart in the source and are kept apart here.
# How the values were obtained:
# [1] = tested on: T. gondii RH strain (RH-Tub-eYFP) tachyzoites; assay: microbe, parasite or virus in culture; type: cell-based, Toxoplasma gondii
# [2] = tested on: P. falciparum 3D7 parasites; assay: P. falciparum growth inhibition assay, 2-cycle (120 h treatment), delayed-death screen and dose-response; type: cell-based, Plasmodium falciparum; settings: for activity at 2 µg/mL: Plasmodium falciparum, 3D7
# [3] = tested on: P. falciparum 3D7 parasites; assay: P. falciparum growth inhibition assay, 1-cycle (72 h treatment), SYBR DNA staining (library screen at 2 μg/mL and dose-response); type: cell-based, Plasmodium falciparum; settings: for activity at 2 µg/mL: Plasmodium falciparum, 3D7
# [4] = T. gondii, 72 h, screen at 2 μg/mL, replicate 1
# [5] = T. gondii, 72 h, screen at 2 μg/mL, replicate 2
# [6] = P. falciparum, 120 h, screen at 2 μg/mL, replicate 1
# [7] = P. falciparum, 120 h, screen at 2 μg/mL, replicate 2
# [8] = P. falciparum, 72 h, screen at 2 μg/mL, replicate 1
# [9] = P. falciparum, 72 h, screen at 2 μg/mL, replicate 2
# [10] = Toxoplasma gondii, 72 h, T. gondii, 72 h, screen at 2 μg/mL, replicate 1; read-out: Tg_72h_%Growth_Rep1
# [11] = Toxoplasma gondii, 72 h, T. gondii, 72 h, screen at 2 μg/mL, replicate 2; read-out: Tg_72h_%Growth_Rep2
# [12] = P. falciparum, 120 h, screen at 2 μg/mL, replicate 1, read-out: Pf_120h_%Growth_Rep1
# [13] = P. falciparum, 120 h, screen at 2 μg/mL, replicate 2, read-out: Pf_120h_%Growth_Rep2
# [14] = P. falciparum, 72 h, screen at 2 μg/mL, replicate 1, read-out: Pf_72h_%Growth_Rep1
# [15] = P. falciparum, 72 h, screen at 2 μg/mL, replicate 2, read-out: Pf_72h_%Growth_Rep2
# [16] = library screen at 2 μg/mL, 72 h, % growth, replicate 1
# [17] = library screen at 2 μg/mL, 72 h, % growth, replicate 2
# [18] = active against the parasite at 2 μg/mL, no anti-tumour (NS-1) or cytotoxic (fibroblast) activity at 5 μg/mL
Structure (SMILES),"Tg_72h_%Growth_Rep1 [1, 4]","Tg_72h_%Growth_Rep2 [1, 5]","Pf_120h_%Growth_Rep1 [2, 6]","Pf_120h_%Growth_Rep2 [2, 7]","Pf_72h_%Growth_Rep1 [3, 8]","Pf_72h_%Growth_Rep2 [3, 9]","activity at 2 µg/mL [2, 12]","activity at 2 µg/mL [2, 13]","activity at 2 µg/mL [3, 14]","activity at 2 µg/mL [3, 15]",other results
"C[C@H]1CCC/C=C/C(=O)c2c(O)cc(O)cc2CC(=O)O1 [Dehydrocurvularin, 10,11-]",4.20%,2.39%,13.56%,16.52%,4.73%,1.02%,–,–,–,–,–
Nc1ncnc2c1ncn2[C@@H]1O[C@H](CO)C[C@H]1O [Cordycepin],–,–,–,–,–,–,24.5%,12.4%,22.1%,11.8%,"percent parasite growth at 2 µg/mL [1, 10]: 80%; percent parasite growth at 2 µg/mL [1, 11]: 99.7%"
CC1OC(=O)C2CC3CCCCC3C(C=CC3CCCC(C)N3C)C12 (centres unmarked) [BIA-H1744],–,–,–,–,–,–,–,–,–,–,"Tg_72h_%Growth_Rep1 ([1]; T. gondii RH, 72 h, library screen at 2 μg/mL, % growth, replicate 1): 122.85%; Tg_72h_%Growth_Rep2 ([1]; T. gondii RH, 72 h, library screen at 2 μg/mL, % growth, replicate 2): 95.17%; Pf_120h_%Growth_Rep1 ([2]; P. falciparum 3D7, 120 h, library screen at 2 μg/mL, % growth, replicate 1): 64.50%; Pf_120h_%Growth_Rep2 ([2]; P. falciparum 3D7, 120 h, library screen at 2 μg/mL, % growth, replicate 2): 86.77%; Pf_72h_%Growth_Rep1 ([3]; P. falciparum 3D7, 72 h, library screen at 2 μg/mL, % growth, replicate 1): 66.16%; Pf_72h_%Growth_Rep2 ([3]; P. falciparum 3D7, 72 h, library screen at 2 μg/mL, % growth, replicate 2): 101.99%"
COc1c(C[C@@H](C)OC(=O)Oc2ccc(O)cc2)c2c3c(C[C@@H](C)OC(=O)c4ccccc4)c(OC)c(=O)c4c(O)cc(OC)c(c5c(OC)cc(O)c(c1=O)c52)c43 [Calphostin C],–,–,–,–,–,–,17%,9.44%,13.6%,9.2%,"percent parasite growth at 2 µg/mL ([1]; Toxoplasma gondii; T. gondii, 72 h, screen at 2 μg/mL, replicate 1; read-out: Tg_72h_%Growth_Rep1): 1%; percent parasite growth at 2 µg/mL ([1]; Toxoplasma gondii; T. gondii, 72 h, screen at 2 μg/mL, replicate 2; read-out: Tg_72h_%Growth_Rep2): 2.07%"
CC[C@H]1OC(=O)[C@H](C)C(=O)[C@H](C)[C@@H](O[C@@H]2O[C@H](C)C[C@H](N(C)C)[C@H]2O)[C@](C)(OC)C[C@@H](C)C(=O)[C@H](C)[C@H]2N(CCCCn3cnc(-c4cccnc4)c3)C(=O)O[C@]12C [Telithromycin],–,–,–,–,–,–,50.8%,9.42%,42.3%,40.6%,"percent parasite growth at 2 µg/mL [1, 10]: 56.9%; percent parasite growth at 2 µg/mL [1, 11]: 55.2%"
COC(=O)[C@@]12C(=O)C(C)C(=O)[C@]1(C)C(C)=C[C@H]1[C@]3(C=O)CC[C@H](OC(C)=O)C(C)(C)[C@H]3CC[C@@]12C (some centres unmarked) [Andrastin A],–,–,–,–,–,–,–,–,–,–,"Tg_72h_%Growth_Rep1 [1, 16]: 90.21%; Tg_72h_%Growth_Rep2 [1, 17]: 88.06%; Pf_120h_%Growth_Rep1 ([2]; library screen at 2 μg/mL, 120 h, % growth, replicate 1): 133.36%; Pf_120h_%Growth_Rep2 ([2]; library screen at 2 μg/mL, 120 h, % growth, replicate 2): 82.36%; Pf_72h_%Growth_Rep1 [3, 16]: 79.79%; Pf_72h_%Growth_Rep2 [3, 17]: 84.23%"
CC[C@H]1C[C@]23OC(=O)/C(=C(\O)[C@@]4(CC)[C@@H]5CC[C@H](C)[C@H](O[C@H]6C[C@H](O)[C@H](NC(=O)c7[nH]c(Cl)cc7Cl)[C@@H](C)O6)[C@H]5C=C[C@H]4C/C=C/C/C(C)=C/[C@@]2(C)C=C1C(=O)O)C3=O [Decatromicin B],105.42%,104.91%,74.87%,101.36%,89.49%,90.33%,–,–,–,–,–
CO[C@@H]1[C@@H](OC(N)=O)[C@@H](O)[C@H](Oc2ccc3c(O)c(NC(=O)c4ccc(O)c(CC=C(C)C)c4)c(=O)oc3c2C)OC1(C)C [BIA-N1306],–,–,–,–,–,–,–,–,–,–,"Tg_72h_%Growth_Rep1 ([1]; T. gondii, 72 h, parasite screen at 2 μg/mL, % growth, replicate 1): 9.17%; Tg_72h_%Growth_Rep2 ([1]; T. gondii, 72 h, parasite screen at 2 μg/mL, % growth, replicate 2): 93.65%; Pf_120h_%Growth_Rep1 ([2]; P. falciparum 3D7, 120 h, parasite screen at 2 μg/mL, % growth, replicate 1): 15.07%; Pf_120h_%Growth_Rep2 ([2]; P. falciparum 3D7, 120 h, parasite screen at 2 μg/mL, % growth, replicate 2): 13.28%; Pf_72h_%Growth_Rep1 ([3]; P. falciparum 3D7, 72 h, parasite screen at 2 μg/mL, % growth, replicate 1): 77.54%; Pf_72h_%Growth_Rep2 ([3]; P. falciparum 3D7, 72 h, parasite screen at 2 μg/mL, % growth, replicate 2): 85.29%"
CC(=O)O[C@@H]1/C=C\[C@@](C)(O)C(=O)[C@@H](C)C/C=C\[C@H]2[C@H](O)C(C)=C(C)[C@H]3C(Cc4ccccc4)NC(=O)[C@]132 (some centres unmarked) [cytochalasin C],0.57%,15.53%,12.52%,10.45%,7.71%,8.08%,–,–,–,–,"selectivity for T. gondii in the screens [1, 18]: active selectively against P. falciparum and T. gondii; selectivity for P. falciparum in the screens [3, 18]: active selectively against P. falciparum and T. gondii"
